Measurements: US7189720B2 (H. Lundbeck A/S, priority 1999, dated 2007)

Molecular target: T1, human Y5 receptor (Homo sapiens, UniProt Q15761)
T1 construct: expressed in transfected cells; host or cells: mouse fibroblast LM(tk-) cells, e.g. L-hY5-7 (ATCC CRL-11995)
T1 sequence (Q15761 1-445): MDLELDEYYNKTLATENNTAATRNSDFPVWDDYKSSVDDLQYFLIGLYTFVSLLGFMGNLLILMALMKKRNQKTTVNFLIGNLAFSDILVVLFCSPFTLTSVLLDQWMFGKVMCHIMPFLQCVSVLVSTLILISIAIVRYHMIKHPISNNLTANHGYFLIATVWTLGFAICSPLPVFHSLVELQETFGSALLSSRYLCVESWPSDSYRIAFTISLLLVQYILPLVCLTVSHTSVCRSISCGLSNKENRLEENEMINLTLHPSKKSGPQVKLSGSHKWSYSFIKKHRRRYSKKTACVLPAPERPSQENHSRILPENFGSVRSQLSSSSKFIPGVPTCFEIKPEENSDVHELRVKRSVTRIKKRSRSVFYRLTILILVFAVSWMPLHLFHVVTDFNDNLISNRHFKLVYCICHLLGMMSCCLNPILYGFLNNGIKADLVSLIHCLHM
Assay: Radioligand binding to membranes, cloned human Y5 receptor
Conditions: Table 5; read-out: Ki, nM hNPY-5

| Ki | SMILES |
| --- | --- |
| 33 nM | COc1ccc(S(=O)(=O)NCCCCCNc2nc(-c3ccccn3)cs2)cc1 [Example 62, 2-(5-(4-Methoxyphenyl)sulfonylamino)pentylamino-4-(2-pyridyl)thiazole hydrogen chloride] |
| 4 nM | COc1ccc(C)cc1S(=O)(=O)N[C@H]1CC[C@H](CNc2nc(-c3ccccn3)cs2)CC1 [Example 83, trans-2-(4-(2-Methoxy-5-methylphenyl)sulfonylamino)-cyclohexylmethylamino-4-(2-pyridyl)thiazole dihydrogen chloride] |
| 8.4 nM | O=S(=O)(N[C@H]1CC[C@H](CNc2nc(-c3ccccn3)cs2)CC1)c1ccccc1F [Example 84, trans-2-(4-(2-Fluorophenyl)sulfonylamino)cyclohexylmethyl-amino-4-(2-pyridyl)thiazole dihydrogen chloride] |
| 3.8 nM | Cc1noc(C)c1S(=O)(=O)N[C@H]1CC[C@H](CNc2nc(-c3ccccn3)cs2)CC1 [Example 85, trans-2-(4-(3,5-Dimethyl-4-isoxazolyl)sulfonylamino)-cyclohexylmethylamino-4-(2-pyridyl)thiazole dihydrogen chloride] |
| 12.3 nM | O=S(=O)(N[C@H]1CC[C@H](CNc2nc(-c3cccnc3)cs2)CC1)c1ccccc1F [Example 86, trans-2-(4-(2-Fluorophenyl)sulfonylamino)cyclohexylmethyl-amino-4-(3-pyridyl)thiazole dihydrogen chloride] |
| 17 nM | COc1ccc(C)cc1S(=O)(=O)N[C@H]1CC[C@H](CNc2nc(-c3ccncc3)cs2)CC1 [Example 87, trans-2-(4-(2-Methoxy-5-methylphenyl)sulfonylamino)-cyclohexylmethylamino-4-(4-pyridyl)thiazole dihydrogen chloride] |
| 13.7 nM | COc1ccc(C)cc1S(=O)(=O)NCCCCCNc1nc(-c2nccs2)cs1 [Example 88, N1-(5-[4-(1,3-thiazol-2-yl)-1,3-thiazol-2-yl]aminopentyl)-2-methoxy-5-methyl-1-benzenesulfonamide] |
| 3.2 nM | COc1ccc(C)cc1S(=O)(=O)NC[C@H]1CC[C@H](Nc2nc(-c3nc(C)sc3C)cs2)CC1 [Example 89, trans-N1-[(4-[4-(2,5-Dimethyl-1,3-thiazol-4-yl)-1,3-thiazol-2-yl]aminocyclohexyl)methyl]-2-methoxy-5-methyl-1-benzenesulfonamide] |
| 7.9 nM | COc1ccc(C)cc1S(=O)(=O)NCCCCCNc1nc(-c2cccs2)cs1 [Example 92, N1-(5-{[4-(2-Thienyl)-1,3-thiazol-2-yl]amino}pentyl)-2-methoxy-5-methyl-1-benzenesulfonamide] |
| 6.6 nM | Cc1nc(-c2csc(N[C@H]3CC[C@H](CNS(=O)(=O)c4ccc(F)cc4)CC3)n2)c(C)s1 [Example 97] |

More lines, now with the values behind:

| SMILES | Ki |
| --- | --- |
| O=S(=O)(NCCCCCNc1nc(-c2ccccn2)cs1)c1ccc(F)c(F)c1 [Example 64, 2-(5-(3,4-Difluorophenyl)sulfonylamino)pentylamino-4-(2-pyridyl)thiazole hydrogen chloride] | 42 nM |
| O=S(=O)(Cc1ccccc1)NCCCCCNc1nc(-c2ccccn2)cs1 [Example 66, 2-(5-(Benzylsulfonylamino)pentylamino-4-(2-pyridyl)thiazole hydrogen chloride] | 45 nM |
| CN(C)S(=O)(=O)NC[C@H]1CC[C@H](Nc2nc(-c3nccs3)cs2)CC1 [Example 90, trans-N,N-dimethyl-N′-[(4-[4-(-1,3-thiazol-2-yl)-1,3-thiazol-2-yl]aminocyclohexyl)methyl]sulfamide] | 17.5 nM |
| CN(C)S(=O)(=O)NCCCCCNc1nc(-c2cccs2)cs1 [Example 91, N,N-Dimethyl-N′-(5-{[4-(2-thienyl)-1,3-thiazol-2-yl]amino}-pentyl)sulfamide] | 12.4 nM |
| COc1ccc(C)cc1S(=O)(=O)NCCCCCNc1nc(-c2nc(C)sc2C)cs1 [Example 93, N1-(5-[4-(2,5-Dimethyl-1,3-thiazol-4-yl)-1,3-thiazol-2-yl]aminopentyl)-2-methoxy-5-methyl-1-benzenesulfonamide] | 3.6 nM |
| Cc1nc(-c2csc(NCCCCCNS(=O)(=O)c3ccc(F)cc3)n2)c(C)s1 [Example 94, N1-(5-[4-(2,5-Dimethyl-1,3-thiazol-4-yl)-1,3-thiazol-2-yl]aminopentyl)-4-fluoro-1-benzenesulfonamide] | 19.5 nM |
| O=S(=O)(NCCCCCNc1nc(-c2nccs2)cs1)c1ccc(F)cc1 [Example 95, N1-(5-[4-(1,3-Thiazol-2-yl)-1,3-thiazol-2-yl]aminopentyl)-4-fluoro-1-benzenesulfonamide] | 179 nM |
| Cc1nc(-c2csc(NCCCCCNS(=O)(=O)N(C)C)n2)c(C)s1 [Example 96, N′-(5-[4-(2,5-Dimethyl-1,3-thiazol-4-yl)-1,3-thiazol-2-yl]aminopentyl)-N,N-dimethylsulfamide] | 8.1 nM |
| Cc1nc(-c2cnc(NC[C@H]3CC[C@H](CNS(=O)(=O)N(C)C)CC3)s2)c(C)s1 [Example 99, trans-N′-[4-([5-(2,5-Dimethyl-1,3-thiazol-4-yl)-1,3-thiazol-2-yl]aminomethyl)cyclohexyl]methyl-N,N-dimethyl-sulfamide] | 3.1 nM |
| Cc1nc(-c2csc(NC[C@H]3CC[C@H](CNS(=O)(=O)N4CCOCC4)CC3)n2)c(C)s1 [Example 100, trans-N4-[4-([4-(2,5-Dimethyl-1,3-thiazol-4-yl)-1,3-thiazol-2-yl]aminomethyl)cyclohexyl]methyl-4-morpholinesulfonamide] | 3.3 nM |
| COCCN(C=O)[C@H]1CC[C@H](CNc2nc(-c3nc(C)sc3C)cs2)CC1 [Example 101, trans-N-[4-([4-(2,5-Dimethyl-1,3-thiazol-4-yl)-1,3-thiazol-2-yl]aminomethyl)cyclohexyl]-N-(2-methoxyethyl)formamide] | 407 nM |
| Cc1nc(-c2csc(NC[C@H]3CC[C@H](N(C=O)C(C)C)CC3)n2)c(C)s1 [Example 102, trans-N-[4-([4-(2,5-Dimethyl-1,3-thiazol-4-yl)-1,3-thiazol-2-yl]aminomethyl)cyclohexyl]-N-isopropylformamide] | 72 nM |

Same assay, conditions: Table 6; read-out: Ki, nM hNPY-5

| Ki | SMILES |
| --- | --- |
| 7.4 nM | CS(=O)(=O)NCCCCCCNc1nc2c(s1)CCSc1ccccc1-2 [Example 103, N-[6-(4,5-Dihydrobenzo[2,3]thiepino[4,5-d][1,3]thiazol-2-ylamino)hexyl]methanesulfonamide] |
| 5.4 nM | CCS(=O)(=O)NCCCCCCNc1nc2c(s1)CCSc1ccccc1-2 [Example 105, N1-[6-(4,5-Dihydrobenzo[2,3]thiepino[4,5-d][1,3]thiazol-2-ylamino)hexyl]-1-ethanesulfonamide] |
| 5.1 nM | O=S(=O)(NC[C@H]1CC[C@H](Nc2nc3c(s2)CCSc2ccccc2-3)CC1)c1cccs1 [Example 108, N2-{[4-(4,5-Dihydrobenzo[2,3]thiepino[4,5-d][1,3]thiazol-2-ylamino)cyclohexyl]methyl}-2-thiophenesulfonamide] |
| 17.2 nM | Cn1cnc(S(=O)(=O)NCCCCCNc2nc3c(s2)CCSc2ccccc2-3)c1 [Example 111, N4-[5-(4,5-Dihydrobenzo[2,3]thiepino[4,5-d][1,3]thiazol-2-ylamino)pentyl]-1-methyl-1H-4-imidazolesulfonamide] |
| 4.4 nM | O=S(=O)(NCCCCCCNc1nc2c(s1)CCSc1ccccc1-2)c1cccc2nsnc12 [Example 112, N4-[6-(4,5-Dihydrobenzo[2,3]thiepino[4,5-d][1,3]thiazol-2-ylamino)hexyl]-2,1,3-benzothiadiazole-4-sulfonamide] |
